Experimental data published in ChEMBL document CHEMBL2390858, “Design, synthesis and anti-tuberculosis activity of 1-adamantyl-3-heteroaryl ureas with improved in vitro pharmacokinetic properties” (Bioorg Med Chem, 2013).
Values after ≈ are worked out from the molar mass of the structure shown.

Experiments:
Proteus mirabilis = assay: microbe, parasite or virus in culture
[1] = Metabolic stability in CD-1 mouse liver microsomes assessed as compound remaining after 90 mins in presence of NADPH; type: ADME, Microsome; settings: read-out: Stability
Staphylococcus aureus [2] = assay: microbe, parasite or virus in culture; settings: ATCC 29213
Proteus vulgaris = assay: microbe, parasite or virus in culture
Pseudomonas aeruginosa = assay: microbe, parasite or virus in culture
Klebsiella pneumoniae = assay: microbe, parasite or virus in culture
Vero = assay: cells; settings: Chlorocebus sabaeus, 72 h
Streptococcus pneumoniae = assay: microbe, parasite or virus in culture
[3] = test system: Mycobacterium tuberculosis; assay: microbe, parasite or virus in culture; settings: H37Rv, 168 h
Bacillus subtilis = assay: microbe, parasite or virus in culture
Bacillus anthracis = assay: microbe, parasite or virus in culture; settings: Sterne
Staphylococcus aureus [4] = assay: microbe, parasite or virus in culture; settings: NRS70
Enterococcus faecalis = assay: microbe, parasite or virus in culture
Streptococcus pyogenes = assay: microbe, parasite or virus in culture
Escherichia coli = assay: microbe, parasite or virus in culture; settings: K-12
Acinetobacter = assay: microbe, parasite or virus in culture
[5] = target: T1, Bifunctional epoxide hydrolase 2 (Homo sapiens, UniProt P34913)
T1 sequence (P34913 whole entry): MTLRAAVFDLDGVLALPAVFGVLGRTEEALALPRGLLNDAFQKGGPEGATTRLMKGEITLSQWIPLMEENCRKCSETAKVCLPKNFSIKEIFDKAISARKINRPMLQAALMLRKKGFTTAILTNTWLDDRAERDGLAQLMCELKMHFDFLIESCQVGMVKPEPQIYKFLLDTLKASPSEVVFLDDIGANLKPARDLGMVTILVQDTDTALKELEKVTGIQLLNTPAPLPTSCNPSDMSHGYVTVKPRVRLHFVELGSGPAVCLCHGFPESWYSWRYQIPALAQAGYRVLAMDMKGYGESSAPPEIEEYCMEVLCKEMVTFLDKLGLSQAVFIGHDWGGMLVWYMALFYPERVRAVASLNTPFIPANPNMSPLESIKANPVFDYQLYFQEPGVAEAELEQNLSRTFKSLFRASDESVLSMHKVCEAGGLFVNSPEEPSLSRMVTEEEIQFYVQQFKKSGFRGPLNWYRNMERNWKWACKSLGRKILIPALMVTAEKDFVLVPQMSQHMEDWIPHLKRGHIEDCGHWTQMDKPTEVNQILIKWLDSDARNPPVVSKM

physchem = settings: system solution buffer, pH 7.4
Plasma = settings: human, 4 h, 10 µM
[6] = buffer
Burkholderia cepacia = assay: microbe, parasite or virus in culture
in vitro = settings: human, plasma

CC(C)(C)c1cc(NC(=O)NC23CC4CC(CC(C4)C2)C3)no1
MIC (Proteus mirabilis): > 200 µg/mL
remaining at […] [1]: > 30%
MIC (Staphylococcus aureus [2]): 100 µg/mL (≈ 315 µM)
MIC (Proteus vulgaris): > 200 µg/mL
MIC (Pseudomonas aeruginosa): > 200 µg/mL
MIC (Klebsiella pneumoniae): > 200 µg/mL
IC50 (Vero): 6 µg/mL (≈ 18.9 µM)
MIC (Streptococcus pneumoniae): > 200 µg/mL
MIC [3]: 1.56 µg/mL (≈ 4.91 µM)
MIC (Bacillus subtilis): > 200 µg/mL
MIC (Bacillus anthracis): > 200 µg/mL
MIC (Staphylococcus aureus [4]): 200 µg/mL (≈ 630 µM)
MIC (Enterococcus faecalis): 100 µg/mL (≈ 315 µM)
MIC (Streptococcus pyogenes): > 200 µg/mL
MIC (Escherichia coli): 100 µg/mL (≈ 315 µM)
MIC (Acinetobacter): > 200 µg/mL
IC50 [5]: 56 nM

O=C(Nc1ccc(F)c(F)c1F)NC12CC3CC(CC(C3)C1)C2
solubility at 18 h (physchem): < 0.1 µg/mL

CCCn1nc(NC(=O)NC2C3CC4CC(C3)CC2C4)cc1C (stereo unspecified)
MIC (Proteus mirabilis): > 200 µg/mL
MIC (Staphylococcus aureus [2]): > 200 µg/mL
PPB (Plasma): 98.9%
MIC (Proteus vulgaris): > 200 µg/mL
MIC (Pseudomonas aeruginosa): > 200 µg/mL
MIC (Klebsiella pneumoniae): > 200 µg/mL
IC50 (Vero): 83 µg/mL (≈ 262 µM)
MIC (Streptococcus pneumoniae): > 200 µg/mL
solubility ([6]; 18 h, pH 7.4): 2 µg/mL (≈ 6.32 µM)
MIC [3]: 1.56 µg/mL (≈ 4.93 µM)
MIC (Bacillus subtilis): > 200 µg/mL
MIC (Bacillus anthracis): > 200 µg/mL
MIC (Staphylococcus aureus [4]): > 200 µg/mL
MIC (Enterococcus faecalis): > 200 µg/mL
MIC (Streptococcus pyogenes): > 200 µg/mL
MIC (Burkholderia cepacia): > 200 µg/mL
MIC (Escherichia coli): > 200 µg/mL
MIC (Acinetobacter): > 200 µg/mL
IC50 [5]: 936 nM

COC(=O)c1ccc(NC(=O)NC23CC4CC(CC(C4)C2)C3)cc1O
fraction unbound at 4 h, 10 µM (in vitro): 0.031
solubility ([6]; pH 7.4, 18 h): 0.51 µg/mL (≈ 1.48 µM)

CC(C)c1nnc(NC(=O)NC2C3CC4CC(C3)CC2C4)o1 (stereo unspecified)
MIC (Proteus mirabilis): > 200 µg/mL
remaining at […] [1]: > 30%
MIC (Staphylococcus aureus [2]): > 200 µg/mL
PPB (Plasma): 98%
MIC (Proteus vulgaris): > 200 µg/mL
MIC (Pseudomonas aeruginosa): > 200 µg/mL
MIC (Klebsiella pneumoniae): > 200 µg/mL
IC50 (Vero): 33 µg/mL (≈ 108 µM)
MIC (Streptococcus pneumoniae): 100 µg/mL (≈ 329 µM)
MIC [3]: 1.56 µg/mL (≈ 5.12 µM)
MIC (Bacillus subtilis): 100 µg/mL (≈ 329 µM)
MIC (Bacillus anthracis): 100 µg/mL (≈ 329 µM)
MIC (Staphylococcus aureus [4]): > 200 µg/mL
MIC (Enterococcus faecalis): 100 µg/mL (≈ 329 µM)
MIC (Streptococcus pyogenes): 200 µg/mL (≈ 657 µM)
MIC (Burkholderia cepacia): > 200 µg/mL
MIC (Escherichia coli): > 200 µg/mL
MIC (Acinetobacter): > 200 µg/mL
IC50 [5]: 843 nM

CC(C)(C)c1cc(NC(=O)NC2C3CC4CC(C3)CC2C4)no1 (stereo unspecified)
MIC (Proteus mirabilis): > 200 µg/mL
remaining at […] [1]: > 30%
MIC (Staphylococcus aureus [2]): > 200 µg/mL
PPB (Plasma): 95.2%
MIC (Proteus vulgaris): > 200 µg/mL
MIC (Pseudomonas aeruginosa): > 200 µg/mL
MIC (Klebsiella pneumoniae): > 200 µg/mL
IC50 (Vero): 7 µg/mL (≈ 22.1 µM)
MIC (Streptococcus pneumoniae): > 200 µg/mL
solubility ([6]; 18 h, pH 7.4): 22.7 µg/mL (≈ 71.5 µM)
MIC [3]: 0.1 µg/mL (≈ 0.315 µM)
MIC (Bacillus subtilis): > 200 µg/mL
MIC (Bacillus anthracis): > 200 µg/mL
MIC (Staphylococcus aureus [4]): 200 µg/mL (≈ 630 µM)
MIC (Enterococcus faecalis): 6.25 µg/mL (≈ 19.7 µM)
MIC (Streptococcus pyogenes): > 200 µg/mL
MIC (Burkholderia cepacia): > 200 µg/mL
MIC (Escherichia coli): > 200 µg/mL
MIC (Acinetobacter): > 200 µg/mL
IC50 [5]: 73 nM

Cc1ccc(NC(=O)NC2CCCCCC2)cc1Cl
fraction unbound at 4 h, 10 µM (in vitro): 0.003
solubility at 18 h (physchem): < 0.1 µg/mL

O=C(Nc1ncco1)NC12CC3CC(CC(C3)C1)C2
MIC (Proteus mirabilis): > 200 µg/mL
MIC (Staphylococcus aureus [2]): > 200 µg/mL
MIC (Proteus vulgaris): > 200 µg/mL
MIC (Pseudomonas aeruginosa): > 200 µg/mL
MIC (Klebsiella pneumoniae): > 200 µg/mL
IC50 (Vero): 22 µg/mL (≈ 84.2 µM)
MIC (Streptococcus pneumoniae): > 200 µg/mL
solubility ([6]; 18 h, pH 7.4): 4.4 µg/mL (≈ 16.8 µM)
MIC [3]: 6.25 µg/mL (≈ 23.9 µM)
MIC (Bacillus subtilis): > 200 µg/mL
MIC (Bacillus anthracis): > 200 µg/mL
MIC (Staphylococcus aureus [4]): > 200 µg/mL
MIC (Enterococcus faecalis): > 200 µg/mL
MIC (Streptococcus pyogenes): > 200 µg/mL
MIC (Burkholderia cepacia): > 200 µg/mL
MIC (Escherichia coli): > 200 µg/mL
MIC (Acinetobacter): > 200 µg/mL
IC50 [5]: 948 nM

CC1C(NC(=O)Nc2ccc(F)c(F)c2F)CC2CC1C2(C)C (stereo unspecified)
fraction unbound at 4 h, 10 µM (in vitro): 0.008
solubility at 18 h (physchem): < 0.1 µg/mL

O=C(Nc1nnc(C2CCC2)o1)NC1C2CC3CC(C2)CC1C3 (stereo unspecified)
MIC (Proteus mirabilis): > 200 µg/mL
remaining at […] [1]: > 30%
MIC (Staphylococcus aureus [2]): > 200 µg/mL
MIC (Proteus vulgaris): > 200 µg/mL
MIC (Pseudomonas aeruginosa): > 200 µg/mL
MIC (Klebsiella pneumoniae): > 200 µg/mL
IC50 (Vero): 36 µg/mL (≈ 114 µM)
MIC (Streptococcus pneumoniae): 100 µg/mL (≈ 316 µM)
MIC [3]: 0.78 µg/mL (≈ 2.47 µM)
MIC (Bacillus subtilis): 50 µg/mL (≈ 158 µM)
MIC (Bacillus anthracis): 25 µg/mL (≈ 79 µM)
MIC (Staphylococcus aureus [4]): > 200 µg/mL
MIC (Enterococcus faecalis): > 200 µg/mL
MIC (Streptococcus pyogenes): 100 µg/mL (≈ 316 µM)
MIC (Burkholderia cepacia): 50 µg/mL (≈ 158 µM)
MIC (Escherichia coli): > 200 µg/mL
MIC (Acinetobacter): > 200 µg/mL
IC50 [5]: 382 nM

N#Cc1ccc(NC(=O)NC2C3CC4CC(C3)CC2C4)cc1 (stereo unspecified)
fraction unbound at 4 h, 10 µM (in vitro): 0.01
solubility at 18 h (physchem): < 0.1 µg/mL

Cc1cc(NC(=O)NC2C3CC4CC(C3)CC2C4)no1 (stereo unspecified)
MIC (Proteus mirabilis): > 200 µg/mL
MIC (Staphylococcus aureus [2]): > 200 µg/mL
MIC (Proteus vulgaris): > 200 µg/mL
MIC (Pseudomonas aeruginosa): > 200 µg/mL
MIC (Klebsiella pneumoniae): > 200 µg/mL
IC50 (Vero): > 48 µg/mL
MIC (Streptococcus pneumoniae): > 200 µg/mL
solubility ([6]; 18 h, pH 7.4): 25.5 µg/mL (≈ 92.6 µM)
MIC [3]: 6.25 µg/mL (≈ 22.7 µM)
MIC (Bacillus subtilis): > 200 µg/mL
MIC (Bacillus anthracis): > 200 µg/mL
MIC (Staphylococcus aureus [4]): > 200 µg/mL
MIC (Enterococcus faecalis): > 200 µg/mL
MIC (Streptococcus pyogenes): > 200 µg/mL
MIC (Burkholderia cepacia): > 200 µg/mL
MIC (Escherichia coli): > 200 µg/mL
MIC (Acinetobacter): > 200 µg/mL
IC50 [5]: 5 nM

CC(C)c1nnc(NC(=O)NC23CC4CC(CC(C4)C2)C3)o1
MIC (Proteus mirabilis): > 200 µg/mL
MIC (Staphylococcus aureus [2]): > 200 µg/mL
PPB (Plasma): 99.3%
MIC (Proteus vulgaris): > 200 µg/mL
MIC (Pseudomonas aeruginosa): > 200 µg/mL
MIC (Klebsiella pneumoniae): > 200 µg/mL
IC50 (Vero): 11 µg/mL (≈ 36.1 µM)
MIC (Streptococcus pneumoniae): > 200 µg/mL
solubility ([6]; 18 h, pH 7.4): 9.54 µg/mL (≈ 31.3 µM)
MIC [3]: 1.56 µg/mL (≈ 5.12 µM)
MIC (Bacillus subtilis): > 200 µg/mL
MIC (Bacillus anthracis): > 200 µg/mL
MIC (Staphylococcus aureus [4]): > 200 µg/mL
MIC (Enterococcus faecalis): > 200 µg/mL
MIC (Streptococcus pyogenes): > 200 µg/mL
MIC (Burkholderia cepacia): > 200 µg/mL
MIC (Escherichia coli): > 200 µg/mL
MIC (Acinetobacter): > 200 µg/mL
IC50 [5]: 557 nM

CCn1nc(NC(=O)NC2C3CC4CC(C3)CC2C4)cc1C (stereo unspecified)
MIC (Proteus mirabilis): > 200 µg/mL
MIC (Staphylococcus aureus [2]): 100 µg/mL (≈ 331 µM)
MIC (Proteus vulgaris): > 200 µg/mL
MIC (Pseudomonas aeruginosa): > 200 µg/mL
MIC (Klebsiella pneumoniae): > 200 µg/mL
IC50 (Vero): 163 µg/mL (≈ 539 µM)
MIC (Streptococcus pneumoniae): > 200 µg/mL
MIC [3]: 3.13 µg/mL (≈ 10.3 µM)
MIC (Bacillus subtilis): > 200 µg/mL
MIC (Bacillus anthracis): > 200 µg/mL
MIC (Staphylococcus aureus [4]): > 200 µg/mL
MIC (Enterococcus faecalis): > 200 µg/mL
MIC (Streptococcus pyogenes): > 200 µg/mL
MIC (Burkholderia cepacia): > 200 µg/mL
MIC (Escherichia coli): > 200 µg/mL
MIC (Acinetobacter): > 200 µg/mL
IC50 [5]: 2460 nM

Cc1csc(NC(=O)NC2C3CC4CC(C3)CC2C4)n1 (stereo unspecified)
MIC (Proteus mirabilis): > 200 µg/mL
MIC (Staphylococcus aureus [2]): 200 µg/mL (≈ 686 µM)
MIC (Proteus vulgaris): > 200 µg/mL
MIC (Pseudomonas aeruginosa): > 200 µg/mL
MIC (Klebsiella pneumoniae): > 200 µg/mL
IC50 (Vero): 60 µg/mL (≈ 206 µM)
MIC (Streptococcus pneumoniae): 100 µg/mL (≈ 343 µM)
MIC [3]: 1.56 µg/mL (≈ 5.35 µM)
MIC (Bacillus subtilis): > 200 µg/mL
MIC (Bacillus anthracis): > 200 µg/mL
MIC (Staphylococcus aureus [4]): 100 µg/mL (≈ 343 µM)
MIC (Enterococcus faecalis): > 200 µg/mL
MIC (Streptococcus pyogenes): 200 µg/mL (≈ 686 µM)
MIC (Burkholderia cepacia): > 200 µg/mL
MIC (Escherichia coli): > 200 µg/mL
MIC (Acinetobacter): > 200 µg/mL
IC50 [5]: 710 nM
